Assay results from ChEMBL document CHEMBL1201862, “PubChem BioAssay data set” (2004).
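96-well plates; 48 h exposure; 5 concentrations. Endpoints by linear interpolation between flanking doses. Not reached: highest tested concentration assigned. GI50 marks 50% less growth.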 Calls of active or inactive are those of the source. No stated cut-off is given here; in the data, active = GI50 up to about 1.1 µM and inactive = higher.

Experiments:
Assay in all cases: inhibition of tumour cell growth, NCI panel, 48 h
[1] = test system: HCT-116
[2] = test system: RPMI-8226
[3] = test system: HCC 2998
[4] = test system: SF-539
[5] = test system: NCI-H522
[6] = test system: HOP-18
[7] = test system: SF-295
[8] = test system: HT-29
[9] = test system: KM12
[10] = test system: A549
[11] = test system: OVCAR-5
[12] = test system: IGROV-1
[13] = test system: HL-60
[14] = test system: M14
[15] = test system: CCRF-CEM
[16] = test system: 786-0
[17] = test system: HOP-92
[18] = test system: BT-549
[19] = test system: Hs-578T
[20] = test system: MDA-N

Measured: GI50

COC(=O)C1=C(C[S+]([O-])c2ccccc2[N+](=O)[O-])ON(C)C1c1ccccc1 (stereo unspecified)
inactive: [1] 25.5 µM | [2] 34 µM | [3] 15.8 µM | [4] 27.3 µM | [5] 18.4 µM | [6] 52.2 µM | [7] 65.8 µM | [8] 32.1 µM | [9] 55.5 µM | [10] 47.2 µM | [11] > 100 µM | [12] > 100 µM | [13] 17.4 µM | [14] 94 µM | [15] 10.5 µM | [16] 40.6 µM

O=C1c2ccccc2C(=O)c2nc3c(O)cccc3cc21
inactive: [1] 4.12 µM | [2] 6.47 µM | [3] 35.9 µM | [4] 28.4 µM | [5] 4.97 µM | [6] 24.9 µM | [7] 12.7 µM | [8] 21 µM | [9] 47.6 µM | [10] 17.8 µM | [11] 89.7 µM | [12] 57.8 µM | [14] 6.34 µM | [16] 6.38 µM

CC1=CC2CC(C)C1(C)CCc1ccoc12 (stereo unspecified)
inactive: [17] > 100 µM | [1] > 100 µM | [2] > 100 µM | [3] > 100 µM | [4] > 100 µM | [6] > 100 µM | [7] > 100 µM | [8] > 100 µM | [9] > 100 µM | [10] > 100 µM | [11] > 100 µM | [12] > 100 µM | [13] > 100 µM | [14] > 100 µM | [15] > 100 µM | [16] > 100 µM

CC(C)=CCc1c2c(c(O)c3c(=O)c4c(oc13)-c1ccc(O)cc1OC4C=C(C)C)C=CC(C)(C)O2 (stereo unspecified)
inactive: [18] 13.9 µM | [19] 2.37 µM | [17] 7.11 µM | [1] 8.45 µM | [2] 3.54 µM | [3] 3.34 µM | [4] 17.2 µM | [5] 12.4 µM | [20] 13.2 µM | [7] 14.6 µM | [8] 13 µM | [9] 8.04 µM | [10] 10.8 µM | [11] 20.2 µM | [12] 14 µM | [13] 15.2 µM | [14] 18 µM | [15] 3.99 µM | [16] 11.4 µM

O=C1NC2CCC(C2)C1c1ccccc1 (stereo unspecified)
inactive: [2] > 100 µM | [3] > 100 µM | [4] > 100 µM | [6] > 100 µM | [7] > 100 µM | [8] > 100 µM | [9] > 100 µM | [10] > 100 µM | [11] > 100 µM | [12] > 100 µM | [13] > 100 µM | [14] > 100 µM | [15] > 100 µM | [16] > 100 µM

CNc1ccc2ncccc2c1[N+](=O)[O-]
inactive: [17] > 100 µM | [1] > 100 µM | [2] > 100 µM | [3] > 100 µM | [4] > 100 µM | [6] > 100 µM | [7] > 100 µM | [8] > 100 µM | [9] > 100 µM | [10] > 100 µM | [11] > 100 µM | [12] > 100 µM | [13] > 100 µM | [14] > 100 µM | [15] > 100 µM | [16] > 100 µM

O=C1C2C3C=CC(C2C(=O)N1CO)C1C2C(=O)N(CO)C(=O)C2C31 (stereo unspecified)
inactive: [17] > 100 µM | [1] > 44.5 µM | [2] 21.8 µM | [3] > 100 µM | [4] > 61 µM | [5] > 100 µM | [6] 43.4 µM | [7] > 100 µM | [8] 92.5 µM | [9] > 74.3 µM | [10] > 54.2 µM | [11] > 100 µM | [12] > 100 µM | [14] > 100 µM | [15] 23.6 µM | [16] > 44 µM
